Read-outs that look alike come from different tables or passages of the source.
Experiments:
mPGES-1 Mouse enzyme = molecular target: T1, mPGES-1 Mouse enzyme (Mus musculus, UniProt Q9JM51); experiment: mPGES-1 enzyme activity assay (PGE2 enzyme immunoassay), mouse enzyme; assay type: biochemical; settings: for inhibition at 10 µM: compound at a concentration of 10 μM, read-out: % inhibition of the compound against mPGES-1, Mouse enzyme; for IC50: recombinant microsomal enzyme, means ± SD, triplicate
T1 construct: made in house; host or cells: FreeStyle 293-F cells, crude microsomal preparation
T1 sequence (Q9JM51 1-153): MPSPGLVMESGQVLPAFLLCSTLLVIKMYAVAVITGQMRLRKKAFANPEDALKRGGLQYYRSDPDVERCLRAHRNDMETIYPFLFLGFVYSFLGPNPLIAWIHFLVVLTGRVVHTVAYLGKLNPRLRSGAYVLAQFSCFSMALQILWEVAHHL
Procedure: (§1) Studies were conducted to characterize the inhibitory activity against recombinant mPGES-1 of the compounds synthesized in accordance with Examples 1-4, and disclosed herein.
(§2) Briefly, FreeStyle 293-F cells were cultured following manufacturer's manual in FreeStyle 293 expression medium on orbit rotate shaker in 8% CO2 incubator at 37° C. Cells were transfected with 1.5 μg/mL of mPGES-1/pcDNA3 construct using FreeStyle Max reagent at a cell density of 1×10^6 for 2 days. Transfected cells were collected, washed, and sonicated in TSES buffer (15 mM Tris-HCl, pH 8.0 plus 0.25 M sucrose, 0.1 mM EDTA and 1 mM DTT) on ice. The broken cells were first centrifuged at 12,500×g for 10 min. The supernatant was further centrifuged at 105,000×g for 1 hr at 4° C. The pellet was washed and homogenized in PBS buffer. The crude microsomal mPGES-1 preparation was aliquoted and stored at −80° C. The crude protein concentration was 8 mg/mL.
(§3) The enzyme activity assays were performed on ice in 1.5 ml microfuge tubes by using the expressed mPGES-1. The reaction mixture contained: 0.2 M Na2HPO4/NaH2PO4, pH 7.2, 10 μL; 0.1 M GSH, 2.5 μL; diluted microsomal enzyme (80 μg/mL), 1 μL; PGH2 (0.31 mM in DMF), 5 μL; 1 μL inhibitor; and H2O in a final reaction volume of 100 μL. PGH2 was stored in dry ice and used to initiate the reaction.
(§4) Compounds were incubated with the enzyme for 15 min at room temperature before the addition of cold PGH2 (1 μM final) to initiate the enzyme reaction. After 30 s, 10 μL of SnCl2 (40 mg/mL) in ethanol was added to stop the reaction. The nonenzymatic conversion of PGH2 to PGE2 was performed in the same buffer devoid of enzyme. The reaction mixture was placed on ice until PGE2 production was determined by the PGE2 enzyme immunoassay as described earlier. IC50 values of the inhibitors were calculated by using the GraphPad Prism 4.0 program. The results are set forth in the tables provided in Examples 7-10.

mPGES-1 = molecular target: T2, mPGES-1 (Homo sapiens, UniProt O14684); experiment: mPGES-1 enzyme activity assay (PGE2 enzyme immunoassay), human enzyme; assay type: biochemical; set-up: made in house; host or cells: FreeStyle 293-F cells, crude microsomal preparation; settings: for IC50: recombinant microsomal enzyme, means ± SD, triplicate
T2 sequence (O14684 1-152): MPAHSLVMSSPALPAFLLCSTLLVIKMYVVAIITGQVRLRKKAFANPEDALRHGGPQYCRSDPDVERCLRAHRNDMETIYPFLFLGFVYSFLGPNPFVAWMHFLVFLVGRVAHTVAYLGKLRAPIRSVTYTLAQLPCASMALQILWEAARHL
Procedure: as §1, §2, §3, §4

[1] = IC50 against mPGES-1, Human enzyme
[2] = read-out: IC50 against mPGES-1, Mouse enzyme
[3] = read-out: IC50 against mPGES-1, Human enzyme
[4] = IC50 against mPGES-1, Mouse enzyme

Row | SMILES | inhibition at 10 µM (mPGES-1 Mouse enzyme) | IC50 (mPGES-1; [1]) | IC50 (mPGES-1; [3]) | also measured
1 | O=C1NC(=O)C(=Cc2cc(Br)ccc2OCCCCC2CCCCC2)C(=O)N1 [Compound I-14] | 38% | 96 ± 14 nM | – | –
2 | O=C(O)CN1C(=O)S/C(=C2\C(=O)N(CCCCC3CCCCC3)c3ccccc32)C1=O [II-09] | – | – | 499 ± 108 nM | IC50 (mPGES-1 Mouse enzyme; [2]): 947 ± 183 nM
3 | O=C(O)CN1C(=O)S/C(=C2\C(=O)N(CCc3ccccc3)c3ccccc32)C1=O [II-03] | 62% | – | 348 ± 44 nM | –
4 | O=C1NC(=O)C(=Cc2ccc(OCCCOc3ccc(-c4ccccc4)cc3)c(Cl)c2)C(=O)N1 [Compound I-35] | 17% | 337 ± 34 nM | – | –
5 | O=C1NC(=O)C(=Cc2ccc(OCCCCC3CCCCC3)c(Cl)c2)C(=O)N1 [Compound I-21] | – | 28 ± 3 nM | – | IC50 (mPGES-1 Mouse enzyme; [4]): 415 ± 120 nM
6 | CCCCCCCOc1c(Br)cc(C=C(C#N)C#N)cc1OC [Compound V-15] | – | – | 83 ± 14 nM | IC50 (mPGES-1 Mouse enzyme; [2]): 357 ± 52 nM
7 | CCCCCCCCCOc1ccc(C=C2C(=O)NC(=O)NC2=O)cc1[N+](=O)[O-] [Compound I-41] | – | 188 ± 43 nM | – | IC50 (mPGES-1 Mouse enzyme; [4]): 1300 ± 163 nM
8 | O=C1S/C(=C\c2ccc(Oc3cc([N+](=O)[O-])c([N+](=O)[O-])cc3F)c([N+](=O)[O-])c2)C(=O)N1CCCCC1CCCCC1 [IV-01] | 91% | – | 296 ± 48 nM | –
9 | COc1cc(C=C2C(=O)NC(=O)NC2=O)cc(Cl)c1OCCCCC1CCCCC1 [Compound I-09] | – | 22 ± 7 nM | – | IC50 (mPGES-1 Mouse enzyme; [4]): 360 ± 56 nM
10 | CN1C(=O)C(=Cc2ccc(OCCCC3CCCCC3)c(Cl)c2)C(=O)N(C)C1=O [Compound I-27] | 29% | 240 ± 20 nM | – | –
11 | O=C(CCCN1C(=O)C=CC1=O)Nc1ccc(OCCCC2CCCCC2)cc1 [III-03] | 55% | – | – | inhibition at 10 µM (mPGES-1; compound at a concentration of 10 μM, read-out: % inhibition of the compound against mPGES-1, Human enzyme): 63%
12 | CCCCCCCCOc1ccc(-c2nn(-c3ccccc3)cc2C=C2C(=O)NC(=O)NC2=O)cc1 [VI-05] | – | 323 ± 52 nM | – | IC50 (mPGES-1 Mouse enzyme; [4]): 2160 ± 188 nM
13 | O=C(O)CN1C(=O)S/C(=C2\C(=O)N(CC3CCCCC3)c3ccc(-c4ccccc4)cc32)C1=O [II-18] | – | – | 221 ± 47 nM | IC50 (mPGES-1 Mouse enzyme; [2]): 394 ± 58 nM
14 | COc1cc(C=C2C(=O)NC(=O)NC2=O)cc(Br)c1OCCCCC1CCCCC1 [Compound I-10] | – | 69 ± 16 nM | – | IC50 (mPGES-1 Mouse enzyme; [4]): 292 ± 47 nM
15 | N#C/C(=C/c1cn(-c2ccccc2)nc1-c1ccc(OCc2ccccc2)cc1)C(=O)O [VII-20] | 16% | – | 806 ± 162 nM | –
16 | CCCCCCOc1ccc(-c2nn(-c3ccc(Cl)cc3)cc2C=C2C(=O)NC(=O)NC2=O)cc1 [VI-04] | 46% | – | 285 ± 65 nM | –
17 | CCOc1ccc(-c2nn(-c3ccc(Cl)cc3)cc2C=C2C(=O)NC(=O)NC2=O)cc1 [VI-01] | 28% | – | 265 ± 96 nM | –
18 | CCCCCCCCOc1ccc(C=C(C#N)C#N)cc1[N+](=O)[O-] [Compound V-06] | – | – | 89 ± 12 nM | IC50 (mPGES-1 Mouse enzyme; [2]): 716 ± 120 nM
19 | CCCCCCCCCCCCCCCCCCOc1c(Br)cc(C=C(C#N)C#N)cc1OC [Compound V-20] | – | – | 50 ± 9 nM | IC50 (mPGES-1 Mouse enzyme; [2]): 270 ± 64 nM
20 | CCCCCCCOc1ccc(C=C(C#N)C#N)cc1[N+](=O)[O-] [Compound V-05] | – | – | 135 ± 16 nM | IC50 (mPGES-1 Mouse enzyme; [2]): 776 ± 217 nM
21 | O=C(O)CN1C(=O)S/C(=C2\C(=O)N(CC3CCCCC3)c3ccc(-c4ccc(C#Cc5ccccc5)cc4)cc32)C1=O [II-21] | – | – | 91 ± 23 nM | IC50 (mPGES-1 Mouse enzyme; [2]): 1960 ± 348 nM
22 | COc1ccc(C=C2C(=O)NC(=O)NC2=O)cc1OCCCCC1CCCCC1 [Compound I-12] | – | 152 ± 53 nM | – | IC50 (mPGES-1 Mouse enzyme; [4]): 727 ± 109 nM

Row | SMILES | inhibition at 10 µM (mPGES-1 Mouse enzyme) | IC50 (mPGES-1; [1]) | IC50 (mPGES-1; [3]) | also measured
23 | COc1cc(C=C2C(=O)NC(=O)NC2=O)ccc1OCCCCC1CCCCC1 [Compound I-06] | – | 121 ± 20 nM | – | IC50 (mPGES-1 Mouse enzyme; [4]): 1460 ± 209 nM
24 | CCCCCCCCOc1c(Br)cc(C=C(C#N)C#N)cc1OC [Compound V-18] | – | – | 74 ± 8 nM | IC50 (mPGES-1 Mouse enzyme; [2]): 572 ± 83 nM
25 | CN1C(=O)C(=Cc2ccc(OCCCCC3CCCCC3)c(Br)c2)C(=O)N(C)C1=O [Compound I-19] | 24% | 427 ± 55 nM | – | –
26 | CCCCOc1ccc(-c2nn(-c3ccccc3)cc2/C=C(/C#N)C(=O)O)cc1 [VII-13] | 21% | – | 296 ± 68 nM | –
27 | CCCCCCOc1ccc(-c2nn(-c3ccc(Cl)cc3)cc2/C=C2\SC(=O)N(CC(=O)O)C2=O)cc1 [VII-11] | 37% | – | 36 ± 11 nM | –
28 | O=C(CCCCCN1C(=O)C=CC1=O)Nc1ccc2c(c1)Cc1ccccc1-2 [III-02] | – | – | 613 ± 103 nM | IC50 (mPGES-1 Mouse enzyme; [2]): 2880 ± 496 nM
29 | O=C1NC(=S)NC(=O)C1=Cc1cn(-c2ccccc2)nc1-c1ccc(OCc2ccccc2)cc1 [VI-18] | 25% | 797 ± 160 nM | – | –
30 | CCOc1ccc(-c2nn(-c3ccc(Cl)cc3)cc2/C=C(/C#N)C(=O)O)cc1 [VII-12] | 12% | – | 282 ± 83 nM | –
31 | CCCCCCCCOc1ccc(-c2nn(-c3ccc(Cl)cc3)cc2C=C2C(=O)NC(=S)NC2=O)cc1 [VI-15] | – | – | 92 ± 19 nM | IC50 (mPGES-1 Mouse enzyme; [4]): 316 ± 30 nM
32 | CCCCCCCCOc1ccc(-c2nn(-c3ccc(Cl)cc3)cc2C=C2C(=O)NC(=O)NC2=O)cc1 [VI-06] | – | – | 361 ± 51 nM | IC50 (mPGES-1 Mouse enzyme; [4]): 740 ± 108 nM
33 | O=C1NC(=O)C(=Cc2ccc(OCCCCC3CCCCC3)c(Cl)c2)C(=O)N1 [Compound I-02] | – | – | 33 ± 3 nM | IC50 (mPGES-1 Mouse enzyme; [2]): 157 ± 31 nM
34 | CCCCCCN1C(=O)/C(=C2\SC(=O)N(CC(=O)O)C2=O)c2ccccc21 [II-13] | 57% | – | 1070 ± 116 nM | –
35 | O=C1NC(=O)C(=Cc2ccc(OCCCOc3ccc4ccccc4c3)c(Cl)c2)C(=O)N1 [Compound I-36] | 19% | 365 ± 59 nM | – | –
36 | O=C(O)CN1C(=O)S/C(=C2\C(=O)N(CCCC3CCCCC3)c3ccc(-c4ccccc4)cc32)C1=O [II-25] | – | – | 16 ± 4 nM | IC50 (mPGES-1 Mouse enzyme; [2]): 1220 ± 430 nM
37 | CCCCCCCOc1ccc(C=C(C#N)C#N)cc1 [Compound V-10] | – | – | 136 ± 13 nM | IC50 (mPGES-1 Mouse enzyme; [2]): 1390 ± 255 nM
38 | CCCCCCCCOc1ccc(-c2nn(-c3ccccc3)cc2C=C2C(=O)NC(=S)NC2=O)cc1 [VI-14] | – | 113 ± 23 nM | – | IC50 (mPGES-1 Mouse enzyme; [4]): 1130 ± 131 nM
39 | O=C1NC(=O)C(=Cc2ccc(OCC3CCCCC3)c([N+](=O)[O-])c2)C(=O)N1 [Compound I-38] | 42% | 1110 ± 104 nM | – | –
40 | CCCCOc1ccc(-c2nn(-c3ccc(Cl)cc3)cc2/C=C(/C#N)C(=O)O)cc1 [VII-14] | 30% | – | 190 ± 68 nM | –
41 | CCOc1ccc(-c2nn(-c3ccc(Cl)cc3)cc2/C=C2\SC(=O)N(CC(=O)O)C2=O)cc1 [VII-10] | 35% | – | 41 ± 5 nM | –
42 | O=C1NC(=O)C(=Cc2ccc(OCCCC3CCCCC3)c([N+](=O)[O-])c2)C(=O)N1 [Compound I-32] | – | 73 ± 12 nM | – | IC50 (mPGES-1 Mouse enzyme; [4]): 428 ± 58 nM
43 | CCCCOc1ccc(-c2nn(-c3ccc(Cl)cc3)cc2C=C2C(=O)NC(=S)NC2=O)cc1 [VI-12] | – | – | 56 ± 10 nM | IC50 (mPGES-1 Mouse enzyme; [4]): 445 ± 83 nM

From patent publication US12030877B2, “Prostaglandin E synthase inhibitors and methods for utilizing the same” (University of Kentucky Research Foundation, priority 2016, dated 2024)
